{"source": "patent US20260191244A1", "about": "“NOVEL FLAVOR COMPOUNDS” (INTERNATIONAL FLAVORS & FRAGRANCES INC., priority 2022, published 2026)", "key": {"[1]": {"test": "Flavor evaluation of water solutions", "conditions": "for Flavor Profile: water solution", "protocol": "A series of water solutions of N-(4-methoxyphenyl)-2-methyl-2-(1-methylcyclohexyl)propenamide (Structure A4) were prepared and evaluated for flavor. The flavor profile is reported in the following:\nPreparation and Evaluation of N-(4-Methoxyphenyl)-2-methyl-2-(1-methylcyclohexyl)propenamide (Structure A4) and 1-(tert-Butyl)-N-(4-methoxyphenyl)cyclohexane-1-carboxamide (Structure B4) Mixtures of Different Ratios: Mixtures of N-(4-methoxyphenyl)-2-methyl-2-(1-methylcyclohexyl)propenamide (Structure A4) and 1-(tert-butyl)-N-(4-methoxyphenyl)cyclohexane-1-carboxamide (Structure B4) were prepared by mixing two compounds at different ratios. “Ratio” refers to the weight ratio of Structure A4 and Structure B4. Water solutions of the mixtures (375 ppb) were prepared and evaluated for flavor in water, MSG solution (5000 ppm) and a salt solution (containing NaCl of 3750 ppm, Ribotide® of 35 ppm and MSG of 840 ppm), respectively. Water, MSG solution and the salt solution were each used as base controls."}, "[2]": {"test": "Flavor evaluation in monosodium glutamate (MSG) solution (5000 ppm)", "protocol": "A monosodium glutamate (MSG) solution (5000 ppm) was prepared in water. The flavor profile of the MSG solution with added Structure A4 is reported in the following:\nAs used herein, the term “synergistic umami” refers to the umami effect of the Structure A4 and MSG combination that is stronger than the added umami effect of individual Structure A4 and MSG. […]"}, "[3]": {"test": "Summary statements over all flavor evaluations"}, "[4]": {"test": "Flavor evaluation in Ribotide solution (1000 ppm)", "conditions": "2 ppm added in Ribotide solution (1000 ppm)", "source_text": "The Structure A4 and B4 mixture of 50:50 ratio ([…]) was further evaluated in Ribotide® (1000 ppm)."}}, "data": [{"smiles": "COc1ccc(NC(=O)C2(C(C)(C)C)CCCCC2)cc1", "note": "[Structure B4, 1-(tert-butyl)-N-(4-methoxyphenyl)cyclohexane-1-carboxamide]", "values": [{"measurement": "Flavor in water", "setting": "[1]; 375 ppb in water", "value": "slight umami, slight sweetness and bitter linger"}]}, {"smiles": "COc1ccc(NC(=O)C(C)(C)C2(C)CCCCC2)cc1", "note": "[Structure A4, N-(4-Methoxyphenyl)-2-methyl-2-(1-methylcyclohexyl)propenamide]", "values": [{"measurement": "Umami Strength", "setting": "[2]; MSG solution (5000 ppm) with added Structure A4 1 ppm", "value": "Synergistic umami of Structure A4 and MSG, lingering umami"}, {"measurement": "Umami Strength", "setting": "[2]; MSG solution (5000 ppm) with added Structure A4 2 ppm", "value": "Synergistic umami of Structure A4 and MSG, lingering umami"}, {"measurement": "Umami Strength", "setting": "[2]; MSG solution (5000 ppm) with added Structure A4 5 ppm", "value": "Synergistic umami of Structure A4 and MSG, strong cooling"}, {"measurement": "Umami Strength", "setting": "[2]; MSG solution (5000 ppm) with added Structure A4 10 ppm", "value": "Synergistic umami of Structure A4 and MSG, strong cooling"}, {"measurement": "Umami Strength", "setting": "[2]; MSG solution (5000 ppm) with added Structure A4 15 ppm", "value": "Synergistic umami of Structure A4 and MSG, strong cooling"}, {"measurement": "Umami Strength", "setting": "[2]; MSG solution (5000 ppm) with added Structure A4 100 ppb", "value": "Added effect of Structure A4 and MSG"}, {"measurement": "Umami Strength", "setting": "[2]; MSG solution (5000 ppm) with added Structure A4 200 ppb", "value": "Synergistic umami of Structure A4 and MSG, lingering umami"}, {"measurement": "Umami Strength", "setting": "[2]; MSG solution (5000 ppm) with added Structure A4 375 ppb", "value": "Synergistic umami of Structure A4 and MSG, lingering umami"}, {"measurement": "Umami Strength", "setting": "[2]; MSG solution (5000 ppm) with added Structure A4 500 ppb", "value": "Synergistic umami of Structure A4 and MSG, lingering umami"}, {"measurement": "Umami Strength", "setting": "[2]; MSG solution (5000 ppm) with added Structure A4 750 ppb", "value": "Synergistic umami of Structure A4 and MSG, lingering umami"}, {"measurement": "Synergistic umami with MSG", "setting": "[2]; Structure A4 ranging from 200 ppb to 15 ppm and MSG (5000 ppm)", "value": "Synergistic umami was achieved"}, {"measurement": "Umami character", "setting": "[3]; in all evaluations", "value": "provided upfront and lingering umami character"}, {"measurement": "Synergistic umami", "setting": "[3]; when combined with Structure B4 and/or an additional umami compound", "value": "achieved synergistic umami"}, {"measurement": "Synergistic umami in Ribotide solution", "setting": "[4]", "value": "synergistic umami was also achieved"}, {"measurement": "Flavor Profile", "setting": "[1]; Structure A4 1 ppm", "value": "Strong umami, cooling, tingly, tongue scratching"}, {"measurement": "Flavor Profile", "setting": "[1]; Structure A4 2 ppm", "value": "Strong and lingering umami, good mouthfeel, cooling, tingling"}, {"measurement": "Flavor Profile", "setting": "[1]; Structure A4 5 ppm", "value": "Strong and lingering umami, moderate and lingering cooling, lingering bitter, drying"}, {"measurement": "Flavor Profile", "setting": "[1]; Structure A4 10 ppm", "value": "Moderate umami, moderate cooling, lingering bitter, tingling, brackish linger"}, {"measurement": "Flavor Profile", "setting": "[1]; Structure A4 15 ppm", "value": "Moderate umami, moderate cooling, lingering bitter, creamy, mineral, drying"}, {"measurement": "Flavor Profile", "setting": "[1]; Structure A4 100 ppb", "value": "Very slight bitter, minimal cooling, drying linger, minimal umami"}, {"measurement": "Flavor Profile", "setting": "[1]; Structure A4 200 ppb", "value": "Slight cooling, slight bitter, drying, very slight umami"}, {"measurement": "Flavor Profile", "setting": "[1]; Structure A4 375 ppb", "value": "Slight bitter, cooling, umami, linger"}, {"measurement": "Flavor Profile", "setting": "[1]; Structure A4 500 ppb", "value": "Clear and moderate umami, slight bitter, cooling, linger"}, {"measurement": "Flavor Profile", "setting": "[1]; Structure A4 750 ppb", "value": "Clear and moderate umami, cooling, slightly soapy, slightly waxy"}, {"measurement": "Umami in water", "setting": "[1]; water solutions, all concentrations 100 ppb to 15 ppm", "value": "exhibited umami"}]}]}
